According to patent publication US11773086B2, “Fungal modulators” (TRUSTEES OF BOSTON UNIVERSITY, priority 2020, dated 2023):

Legend:
[1] = tested on: C. auris in co-culture with 293T cells; assay: Co-culture of luciferase-expressing 293T cells with C. auris; type: cell-based, Candida auris; settings: azoffluxin and low fluconazole, 48 hours
Procedure: FIG. 10A depicts mammalian embryonic kidney (293T) cells expressing luciferase used to quantify mammalian cell growth in co-culture. Mammalian cells were seeded in 384-well plates in DMEM medium at 5×10^5 cells/mL overnight. After 24 hours the indicated concentration of compound (⋅ indicates combo treatment concentrations) was added along with 2.5×10^3 cells/mL of C. auris. Co-cultures were incubated for 48 hours at 37° C. and then the luminescence was measured as an output of mammalian cell growth. Error represents standard deviation between technical quadruplicates, (***) indicates a p-value<0.001 between 293T cells alone and co-culture growth for each condition. […] FIG. 10C depicts checkerboard assays performed as described in FIG. 2B with C. auris Clade IV isolate B11801. Relative growth was measured after 24 hours using OD600 and normalized to no-drug control wells (see color bar). The FICI calculated for each checkerboard is shown in the top right of each plot, with values<0.5 indicating synergy. FIG. 10D depicts kidney fungal burden (CFU) in mice from each treatment group (n=3) that had been infected with C. auris B11801. […] The significance of differences between combination treatment and treatment with each compound alone was determined by two-tailed unpaired student t-test, (***) p-value<0.001. […]

[2] = tested on: Saccharomyces cerevisiae (BY4741); assay: Azoffluxin dose-response with background fluconazole; type: cell-based; settings: fluconazole-sensitive laboratory strain BY4741, background FLC 0.5 μg/mL
Procedure: FIGS. 2A-2E illustrate the above-described screening of the BU-CMD which identified azoffluxin as a fluconazole (FLC) potentiator against C. auris. […] Growth, as determined by optical density at 600 nm (OD600), is plotted in the presence of each CMD compound alone on the y-axis and in combination with FLC on the x-axis. Dotted lines represent 7-median absolute deviations from the median for each condition. […] FIG. 2B depicts the synergistic interactions. […] Growth was measured by the OD600 and normalized to the no drug control (see color bar). The fractional inhibitory concentration index (FICI) was calculated to determine the chemical interaction, with a value below 0.5 indicating synergy. […] FIG. 2D depicts FLC Etest strips in the presence and absence of 50 μM azoffluxin. […]
Compound potency was assessed alone by dose response assays or in combination with another compound by dose-response matrixes in 96-well plates, or 384-well, flat-bottom, microtiter plates (Corning) as previously described. […] Growth was quantified by measuring OD600 and corrected for medium background. All strains were assessed in biological duplicate experiments with technical duplicates. […] For dose-response matrixes fractional inhibitory concentration index at 90% growth inhibition (FICI90) was calculated as previously described. […]

C=C(C)C[C@@H](O)COc1cc2c(cc1C1(c3cc4c(cc3OC[C@H](O)CC(=C)C)OCO4)C(=O)Nc3cc(F)ccc31)OCO2 [CMLD012336]
rescue of human cells in co-culture (luminescence) [1]: dramatic rescue of the human cells | enhancement of fluconazole activity [2]: did not enhance the activity of fluconazole
